# Assays:
# Type in all cases: in vivo, human
# [1] = system: patients with glaucoma or ocular hypertension; assay: Phase 1/2 study Part 2: double-masked, randomized, active controlled, ocular hypotensive efficacy (IOP), twice daily; conditions: for mean change from baseline in IOP, primary endpoint: Part 2, Day 14, Hour 2, study eye; for IOP-lowering effect, mean change from baseline in the study eye at all postbaseline timepoints: Part 2, both Compound 1 groups (0.15%, 0.4%) p≤0.007, Timolol p≤0.004
# [2] = system: patients with glaucoma or ocular hypertension; assay: Phase 1/2 study Part 2: low-luminance ETDRS visual acuity
# Source text: Low-luminance visual acuity refers to visual acuity determined using the standard Early Treatment Diabetic Retinopathy Study (ETDRS) chart with a 2.0 log unit neutral density filter placed in front of the eye.
# (§1) Part 1 was an open-label dose escalation study. The purpose of Part 1 of this study (WB007-001), was to assess the safety, tolerability, and IOP-lowering effects of a single drop of an ophthalmic solution containing [3-[(1S)-1-(1H-imidazole-5-yl)ethyl]-2-methylphenyl]methyl-2,2-dimethylpropanoate (Compound 1) with concentrations ranging from 0.05% to 0.4%. […] In addition to assessing the efficacy of Compound 1 on lowering IOP, the study also assessed the effects of the drug on visual function.
# Additional analyses examining the effect of Compound 1 on visual function included low-luminance visual acuity and visual fields.
# [3] = system: patients with glaucoma or ocular hypertension; assay: Phase 1/2 study Part 2: visual field mean deviation; conditions: for visual field change in mean deviation: non-study eye, Day 14; for visual field mean deviation change from Baseline at Day 14: study eyes, positive change = improvement; for Improvement ≥1 dB in Study Eye, number of patients / Improvement ≥1 dB in Study Eye, percentage of patients / Improvement ≥1 dB in Treated Non-Study Eye, number of patients / Improvement ≥1 dB in Treated Non-Study Eye, percentage of patients: visual field
# [4] = system: patients with glaucoma or ocular hypertension; assay: Phase 1/2 study Part 2: pupil size
# Source text: as §1
# The effect of Compound 1 on pupil size was assessed at the baseline visit and on Day 14.
# [5] = system: patients with glaucoma or ocular hypertension; assay: Phase 1/2 study: safety, tolerability and comfort; conditions: both doses (0.15%, 0.4%)
# Source text: as §1
structure (smiles),measurement,setting,value
"CC(C)(C)NC[C@H](O)COc1nsnc1N1CCOCC1 [Timolol, timolol, reference compound]","mean change from baseline in IOP, primary endpoint",[1]; 0.5% timolol ophthalmic solution,−6.0±3.0 mm Hg
same,"IOP-lowering effect, mean change from baseline in the study eye at all postbaseline timepoints",[1],statistically significant IOP-lowering effects
same,percentage of subjects achieving an increase in ETDRS visual acuity of 15 or more letters under low luminance on at least one study visit,"[2]; non-study eye, timolol 0.5%",8.3%
same,percentage of subjects achieving an increase in ETDRS visual acuity of 15 or more letters under low luminance on at least one study visit,"[2]; study eye, timolol 0.5%",0%
same,visual field change in mean deviation,[3]; Timolol 0.5%,−2.0±3.4 dB
same,visual field mean deviation change from Baseline at Day 14,[3]; Timolol 0.5%,−1.2±2.3 dB
same,"Improvement ≥1 dB in Study Eye, number of patients",[3]; Timolol 0.5%,2 patients
same,"Improvement ≥1 dB in Study Eye, percentage of patients",[3]; Timolol 0.5%,17%
same,"Improvement ≥1 dB in Treated Non-Study Eye, number of patients",[3]; Timolol 0.5%,0 patients (0%)
same,"Improvement ≥1 dB in Treated Non-Study Eye, percentage of patients",[3]; Timolol 0.5%,0 patients (0%)
same,mean change in pupil size from Baseline to Day 14 at Hour 0,"[4]; study eyes, Timolol 0.5%",−0.1 mm
same,mean change in pupil size from Baseline to Day 14 at Hour 0,"[4]; treated non-study eyes, Timolol 0.5%",−0.1 mm
"Cc1c(COC(=O)C(C)(C)C)cccc1[C@H](C)c1c[nH]cn1 [Compound 1, [3-[(1S)-1-(1H-imidazole-5-yl)ethyl]-2-methylphenyl]methyl-2,2-dimethylpropanoate]","mean change from baseline in IOP, primary endpoint",[1]; 0.15% twice daily,−4.9±1.8 mm Hg
same,"mean change from baseline in IOP, primary endpoint",[1]; 0.4% twice daily,−5.1±2.5 mm Hg
same,"IOP-lowering effect, mean change from baseline in the study eye at all postbaseline timepoints",[1],statistically significant IOP-lowering effects
same,percentage of subjects achieving an increase in ETDRS visual acuity of 15 or more letters under low luminance on at least one study visit,"[2]; non-study eye, 0.15%",17.4%
same,percentage of subjects achieving an increase in ETDRS visual acuity of 15 or more letters under low luminance on at least one study visit,"[2]; non-study eye, 0.4%",25.0%
same,effect on low luminance visual acuity,[2]; patients receiving 0.15% or 0.4%,Dose related improvements in low luminance visual acuity
same,percentage of subjects achieving an increase in ETDRS visual acuity of 15 or more letters under low luminance on at least one study visit,"[2]; study eye, 0.15%",8.7%
same,percentage of subjects achieving an increase in ETDRS visual acuity of 15 or more letters under low luminance on at least one study visit,"[2]; study eye, 0.4%",16.7%
same,visual field change in mean deviation,[3]; 0.15%,0.4±1.5 dB
same,visual field change in mean deviation,[3]; 0.4%,−0.2±1.4 dB
same,visual field mean deviation change from Baseline at Day 14,[3]; 0.15%,0.2±1.2 dB
same,visual field mean deviation change from Baseline at Day 14,[3]; 0.4%,−0.5±2.3 dB
same,"Improvement ≥1 dB in Study Eye, number of patients",[3]; 0.15%,9 patients
same,"Improvement ≥1 dB in Study Eye, percentage of patients",[3]; 0.15%,39%
same,"Improvement ≥1 dB in Treated Non-Study Eye, number of patients",[3]; 0.15%,7 patients
same,"Improvement ≥1 dB in Treated Non-Study Eye, percentage of patients",[3]; 0.15%,30%
same,"Improvement ≥1 dB in Study Eye, number of patients",[3]; 0.4%,6 patients
same,"Improvement ≥1 dB in Study Eye, percentage of patients",[3]; 0.4%,25%
same,"Improvement ≥1 dB in Treated Non-Study Eye, number of patients",[3]; 0.4%,6 patients
same,"Improvement ≥1 dB in Treated Non-Study Eye, percentage of patients",[3]; 0.4%,25%
same,effect on pupil size,"[4]; either dose (0.15%, 0.4%)",no meaningful decrease in pupil size
same,mean change in pupil size from Baseline to Day 14 at Hour 0,"[4]; study eyes, 0.15%",0.0 mm
same,mean change in pupil size from Baseline to Day 14 at Hour 0,"[4]; study eyes, 0.4%",−0.1 mm
same,mean change in pupil size from Baseline to Day 14 at Hour 0,"[4]; treated non-study eyes, 0.15%",0.0 mm
same,mean change in pupil size from Baseline to Day 14 at Hour 0,"[4]; treated non-study eyes, 0.4%",−0.1 mm
same,safety and tolerability,[5],safe and well-tolerated

# Reference: US20260224534A1, “ALPHA-2-ADRENERGIC AGONISTS FOR IMPROVING VISION” (Bausch + Lomb Ireland Limited, priority 2023, published 2026)
